# In ChEMBL document CHEMBL1145285, “Design and crystal structures of protein kinase B-selective inhibitors in complex with protein kinase A and mutants” (J Med Chem, 2005):
# Legend:
# [1] = molecular target: cAMP-dependent protein kinase catalytic subunit alpha (Bos taurus) (UniProt P00517); test: Binding constant for protein kinase AB5 (5 PKB amino acid substitutions)
# [2] = Inhibition protein kinase A
# [3] = molecular target: cAMP-dependent protein kinase catalytic subunit alpha (Bos taurus) (UniProt P00517); test: Binding constant for protein kinase AB3 (3 PKB amino acid substitutions)
# [4] = Inhibition of protein kinase AB (PKB amino acid substitutions); type: protein assay
SMILES,Kd [1],IC50 [2],Kd [3],IC50 [4]
CC1(C)CCCN(c2ccc(O)c(C(=O)c3ccc(C(=O)N[C@@H]4CCCNC[C@H]4NC(=O)c4ccncc4)cc3)c2)C1.Cl.Cl.Cl,8 nM,1900 nM,77 nM,20 nM
CC1(C)CCCNC1c1ccc(O)c(C(=O)c2ccc(C(=O)N[C@@H]3CCCNC[C@H]3NC(=O)c3ccncc3)cc2)c1F.Cl.Cl.Cl (stereo partly specified),260 nM,2400 nM,3770 nM,750 nM
CN(C)c1ccc(O)c(C(=O)c2ccc(C(=O)N[C@@H]3CCCNC[C@H]3NC(=O)c3ccncc3)cc2)c1.Cl.Cl.Cl,–,30 nM,41 nM,23 nM
CC1(C)CCN(c2ccc(O)c(C(=O)c3ccc(C(=O)N[C@@H]4CCCNC[C@H]4NC(=O)c4ccncc4)cc3)c2)CC1.Cl.Cl.Cl,–,–,–,40 nM
Cl.Cl.Cl.O=C(N[C@@H]1CCCNC[C@H]1NC(=O)c1ccncc1)c1ccc(C(=O)c2cc(N3CCCCC3)ccc2O)cc1,9 nM,400 nM,193 nM,20 nM
